We go through 35 compounds from PubChem BioAssay AID1261 (University of Pittsburgh Molecular Library Screening Center, 2008).

The target of this experiment is Tyrosine-protein phosphatase YopH [Yersinia enterocolitica]. Put plainly: potency against Yersinia YopH phosphatase – biochemical, 10-point dose range, dose response (AID 1261). To be noted: YopH phosphatase enzymatic assay, IC50, 3 runs; for inhibition: at 50 µM, stronger effect = higher value.

Usually IC50 stands for the point on the concentration scale where inhibition reaches its midpoint. The inhibition is the relative decrease from the control value, in per cent.

Inconclusive results are not listed. Calls of active or inactive are those of the source. No rule for the calls is given here.

On to `CC1=C(C)C(=O)C(CCCCC#CCCCC#CCO)=C(C)C1=O`, for which the IC50 is > 50 µM (inactive) and the inhibition turned out to be 0.676%.

Take `Cc1noc(NS(=O)(=O)c2ccc(NC(=O)CCCOc3ccc(Cl)cc3Cl)cc2)c1C`: the inhibition is -12.1%. Still for that read-out and setting: the value for `Cn1c(COc2ccccc2)nnc1SCc1nc2ccccc2[nH]1` was -3.78%. The same measure, in the same setting: the value for `O=C1C(Nc2cccc(O)c2)=C(N2CCCCC2)C(=O)c2ccccc21` was 35.8%; that for `COC(=O)C1C(C(C)C)N(c2ccccc2)OC1(C)O` (centres undefined) was -0.943%; that for `CC1=CC(=C(C#N)c2nc3ccccc3s2)C=C(C)N1c1ccc(F)cc1` was 8.34%. For the compound `COCCCNC(=O)C1CCCN(C(=O)Nc2ccc(OC)cc2)C1` (centres undefined), the inhibition was -19.6%.

As to `CCOC(=O)c1c(C)oc2c1c(C=NCc1ccccn1)c(O)c1ccccc12`, the inhibition was 2.53%. Take `COc1ccc2c(c1)c(=O)cc(C)n2CC(=O)NCc1ccco1`: the inhibition is -3.64%. Consider `COc1ccc(N2C(=O)[C@@H]3[C@H](C2=O)[C@H]2c4ccccc4C=CN2[C@@H]3C(C)=O)cc1`, for which the inhibition was -6.89%. In the case of `C=CCOC(=O)C1=C(C)NC2(O)c3ccccc3C(=O)C12O` (centres undefined), the IC50 was > 50 µM (inactive) and the inhibition came out at 24.6%.

As to `CCN1CCN(CCCOc2ccc(-c3ccccc3)cc2)CC1`, the inhibition was -0.391%. On the same count and under the same terms, the same measure for `COC(=O)c1ccc(Cl)c(NC(=O)CN2CCN(Cc3ccccc3)CC2)c1`: -9.15%. For the compound `COC(=O)N(NC(=O)C(O)(CCC(C)C)CCC(C)C)c1ccccc1`, the inhibition is 4.94%. Still for that read-out and setting: the same measure for `Cc1[nH]n(-c2ccccc2)c(=O)c1C(C[N+](=O)[O-])c1ccc(Cl)cc1` (centres undefined): -6.86%. Same read-out and setting: the value for `Cc1ccc(CSCCNC(=O)CN2C(=O)c3ccccc3S2(=O)=O)cc1` was -6.7%; that for `CCC(=O)Nc1nonc1-c1nc2ccccc2n1CCC(C)C` was -8.12%; that for `C=CCc1cccc2cc(C(=O)Nc3ccc(S(=O)(=O)Nc4nnc(CC)s4)cc3)c(=O)oc12` was 23.8%.

Regarding `CCN(CC)c1ccc(/C=N/Nc2ccc(C)cc2)c(O)c1`, the IC50 is > 50 µM (inactive) and the inhibition came to 9.55%. As to `COCCCNC(=O)CC(NS(=O)(=O)c1ccc(F)cc1)c1ccc(OC)cc1` (centres undefined), the inhibition was -10.7%. Take `CCCCCCCC1=CC2=CC(=O)C(C)(OC(C)=O)C(=O)C2=CN1CCc1ccccc1` (centres undefined): the inhibition was -7.04%. Still for that read-out and setting: the same measure for `CCN1CCC2(CC1)N=C(c1ccc(F)cc1)C(=S)N2C(=O)c1ccc(C)cc1`: 28.6%; for `CCn1c(-c2cc(OC)c(OC)c(OC)c2)n[nH]c1=S`: -24%. As for `Cc1ccc(NC(=O)c2ccnc(C(C)(C)C)c2)cc1`, the inhibition is -1.22%. Same read-out and setting: the same measure for `O=C(/C(=C(\[O-])c1ccccc1)[n+]1ccc2ccccc2c1)c1ccccc1`: -13.2%; for `O=c1cc(CN2CCN(c3ccccc3F)CC2)c2cc(O)c(-c3ccccc3)cc2o1`: 4.58%. The same measure, in the same setting: the value for `O=C(NN=c1c(=O)c2ccccc2c1=O)c1ccccc1` was -14.5%. `Cc1ccc(N2C(=O)[C@@H]3[C@H](C2=O)C2c4ccccc4C=CN2[C@@H]3C(=O)c2ccco2)cc1` (some centres undefined): the inhibition is -1.17%. Consider `Cc1ccc(NC2=C(NCCO)C(=O)c3ccccc3C2=O)cc1`, for which the IC50 is > 50 µM (inactive) and the inhibition came out at 7.47%.

On to `O=C(/C=C/c1ccc(O)cc1)c1ccc(NC2=C(N3CCCCC3)C(=O)c3ccccc3C2=O)cc1`, for which the inhibition amounted to 18.9%. Consider `[O-]/[N+](=C\c1ccc(F)cc1)c1ccccc1`, for which the inhibition is 2.44%. Consider `O=C1c2ccccc2C(=O)C12OC2c1cccc2ccccc12` (centres undefined), for which the inhibition amounted to 80.3%. For `CC(C(=O)N1CCCc2c1c(=O)oc1ccc(O)cc21)N1CCc2ccccc2C1` (centres undefined), the inhibition was 0.0785%. As for `CC(=O)NC1=C(N(C)C2CCS(=O)(=O)C2)C(=O)c2ccccc2C1=O` (centres undefined), the inhibition is 9.79%. For the compound `Cc1ccc(N2C(=O)[C@@H]3[C@H](C2=O)C2c4ccccc4C=CN2[C@@H]3C(=O)c2ccco2)c(C)c1` (some centres undefined), the inhibition amounted to 20.7%.
